The values below come from patent publication US20250281392A1, “TOPICAL DELIVERY OF EPINEPHRINE AND PRODRUG COMPOSITIONS” (Aquestive Therapeutics, Inc., priority 2024, published 2025).

Structures can show the parent of a compound that is named as a salt.

Data set [1] is described as follows: Stability of topical gel formulations (assay and degradant generation at 25° C./60% RH and 40° C./75% RH). The data set is classed as physicochemical. The note with it: Formulation 1, 5% w/w API; accelerated conditions 40° C./75% RH. The procedure:
An exemplary formulation is provided below.
Multiple dipivefrin gel formulations were evaluated. Formulations 1-3: API loading ranging from 2.5-10% w/w. Formulation 4: Reduced ethyl alcohol (50%) of original loading. Formulation 5: Reduced diethylene glycol monoethyl ether (50%) of original loading. Formulation 6: Reduced propylene glycol (50%) of original loading.
The stability of the topical formulation was tested in two assays. Formulation 1 was evaluated with API loading of 5% w/w. Assay trends are directed downward under accelerated conditions (40° C./75% RH)
Stability trends for a claimed topical formulation (AQEP-09) was evaluated by measuring degradant generation. Formulation 1 was tested with API loading of 5% (% w/w).
The following formulations are exemplary.

The subject of a further data set is NK cells. Put plainly: NK activation assay, CD25+CD69+ NK cells by flow cytometry. The data set is classed as cell-based, human. The note with it: for % inactivation relative to vehicle: human NK % CD25+CD69+ cells. Here is the method: IC50 is a measurement of how much of a drug is needed to inhibit a biological process by half.
Peripheral blood mononuclear cells (PBMC) were isolated over a density gradient from six donor buffy coats and CD56+NK were separated using magnetic selection. Purity of sorted NIK cells was assessed by flow cytometry using CD56 as a marker of NK cells.
Following magnetic isolation, NK cells were seeded at 5×10^5 NK cells per well in a 48 well plate alongside NK activation beads (prepared as per manufacturer's protocol) at a 1:1 bead to cell ratio, IL-2 (final concentration 500 IU/ml) and either prodrug/epinephrine at 5 different doses (see section 3.6 below for further details), cortisol/dexamethasone (positive controls) or vehicle (media only). NK cells were cultured with the NK activation beads for two days at 37° C. in the presence of 5% CO2. After two days, supernatants were collected from each condition for future TR-FRET analysis (AQV-24-001_AM-1 only, see below) and the remaining cells from each condition were assessed for expression of surface markers CD25, CD69 and for cell viability using eBioscience™ Fixable Viability Dye. Samples were then treated with eBioscience Intracellular Fixation & Permeabilization Buffer Set to allow staining of intracellular granzyme B. Marker expression was determined by flow cytometry and appropriate “Fluorescence-Minus-One controls” controls were used. Flow cytometry data was analysed using FlowJo analysis software and data was graphed using Graph Pad Prism.
The study was performed in: 3 donors Each experimental condition was tested in: singlicate. For Flow cytometry, viability was measured and cells were phenotyped for NK cell activation (CD25, CD69, granzyme B). Raw and analysed data are provided.
Each experimental condition was tested in: singlicate. For Flow cytometry, viability was measured and cells were phenotyped for NK cell activation (CD25, CD69, granzyme B). Raw and analysed data are provided. Supernatants were harvested in triplicate per condition and stored until further analysis of IFNγ content by TR-FRET. Data was analysed and graphed. Raw and analysed data are provided. […]

Data set [2] can be described thus: Ex vivo permeation and flux of epinephrine prodrug topical gels through porcine ear tissue. The format is in vitro ADME. The settings on record: topical gel containing 0.5% or 5.0% (w/w) dipivefrin HCl; 400 μm tissue. The procedure: Both in vitro and ex vivo permeation was measured for the following formulation. […]
Exemplary formulations were evaluated including Formulations 1-3, with API loading from 2.5-10% w/w.
The claimed topical compositions were tested for permeation using both porcine ear and buccal tissue.
The tested tissues were Porcine Ear vs. Buccal Tissue through 24 hours.

The next data set concerns IL-1b, IL-10. The note with it: cited from earlier work.
Details of data set [3]: species or system Sinclair Nanopigs. The note with it: in vivo. Here is the method:
A study was conducted to evaluate the systemic pharmacokinetic characteristics of Dipivefrin Topical Gel when administered once by topical application to intact, abraded, and wounded skin of Sinclair Nanopigs™. The study design was as follows. Animals were food fasted for at least 8 hours. Animals were monitored until fully recovered. Anesthesia procedures were documented and retained in the study data. The dose formulations were administered to appropriate animals by topical application on the dorsal surface (Dose Site #1) once on Day 1. The dose site was and/or shaved and marked at least one day prior to Day 1. At least the four corners of the dose sites will be marked with indelible ink based on the appropriate dose area. At least the four corners of the tape stripping area were marked with indelible ink for Group 2 and 3 animals. The site for Group 2 and 3 animals was gently abraded via tape stripping (conducted 50 times). All animals will have a uniform topical application using a gloved hand and/or spatula to rub the entire dose amount throughout the total dose area (for 1 minute). Topical application to the dose area for Group 4 animals will include application of the dose amount over the created wounds. If an animal is observed to have test material remaining following the application time, the observation will be documented. Dose formulations will be allowed to equilibrate at ambient temperature for at least 15 minutes prior to and continuously throughout dose administration Prior to dermal (topical) application on Day 1, the dose site for Group 1 to 3 animals were wiped clean with water-moistened gauze or paper towels then wiped dry with dry gauze or paper towels. Following washing and drying, […]. On Day 1, Group 4 animals: The animal backs were prepared for wound creation by performing a surgical scrub. Two (2) wounds were created on the dorsal surface of each Group 4 animal within a 7×7 cm area using an 8 mm punch biopsy. Steps were taken to ensure the area designated for wound creation is within the total dose area (8×8 cm). […]

Data set [4] can be described thus: Ex vivo permeation of ondansetron formulation through dermatomed porcine ear (tissue thickness / tissue type). The format is in vitro ADME. Here is the method:
Referring to FIG. 2A (through 6 hour timepoint) and FIG. 2B (through 24 hour timepoint), dermatome sectioning of the porcine ear was conducted to sample membranes of varying thickness that both capture the complete epidermis and a varying thickness of the dermis. Dermatome sectioning completed at 200 μm, 300 μm, and 400 μm to provide membranes of a varying total thickness.
As porcine tissue varies with regard to stratum corneum and epidermal thickness as a function of sampling location, multiple sampling locations have been selected for comparison. Dermatome sectioning of multiple porcine tissue samples at a constant thickness. Dermatome sectioning completed at 400 μm. Tissue types evaluated included porcine ear, shoulder, rump, and belly locations
Referring to FIG. 3A (through 400 minutes) and FIG. 3B (through 1500 minutes), the average amount of ondansetron permeated (in ug) is measured as a function of time. The permeation is measured through varying intact porcine ear tissue types at constant thickness (400 um total thickness). […] Given the comparably low standard deviation and the lack of ondansetron detected in the receiver media at t=0 minutes compared to other tissue types, this tissue type has been selected for continued ex-vivo permeation method development.

The next data set has as its system TNFα, IL-10. The settings on record: cited from earlier work.
Setting [5] is: tissue thickness 200 μm, donor cell empty.
The mark [6] stands for this setting: tissue thickness 400 μm, donor cell filled.

With `CNCC(O)c1ccc(OC(=O)C(C)C)c(OC(=O)C(C)C)c1` (centres unmarked) [AQEP-09, Dibutepinephrine], the “degradant formation trends (epinephrine, PD-15, RRT 1.80)” value in data set [1] is recorded as “directed upward”.

`C[C@]12CCC(=O)C=C1CC[C@@H]1[C@@H]2[C@@H](O)C[C@@]2(C)[C@H]1CC[C@]2(O)C(=O)CO` [Cortisol]: the “% inactivation relative to vehicle” value with NK cells (200 nM) was 39%.

Regarding `C[C@@H]1C[C@H]2[C@@H]3CCC4=CC(=O)C=C[C@]4(C)[C@@]3(F)[C@@H](O)C[C@]2(C)[C@@]1(O)C(=O)CO` [Dexamethasone], the results for the “% inactivation relative to vehicle” value in the data set on NK cells (200 nM) and in the data set on NK cells (1 μM) were 22% and 19%, respectively.

For `CNCC(O)c1ccc(OC(=O)C(C)(C)C)c(OC(=O)C(C)(C)C)c1` (centres unmarked) [Dipivefrin HCl], the “ex vivo permeation through porcine ear tissue” value in data set [2] is recorded as “Significant permeation”.

Take `CNC[C@H](O)c1ccc(O)c(O)c1` [Epinephrine]: the “CD25+CD69+ NK cells compared to vehicle” value in the data set with NK cells (5 doses, 6 donors (donor 1 removed)) is “consistent reduction”. The entries for the “% inactivation relative to vehicle” value with NK cells (500 nM), in the data set with NK cells (1000 nM) and with NK cells (2500 nM) were 65%, 61% and 51%, respectively. In the data set on NK cells (range of concentrations, exceeding IC50 at 70, 140 and 280 nM), the “suppression of activation of NK cells, Epinephrine and Dipivefrin combined for analysis” value is “effective suppression”. For the same compound, the “serum concentrations of IL-10” value with IL-1b, IL-10 (humans) is “increases serum concentrations”. The “serum concentrations of IL-1b” value in the data set with IL-1b, IL-10 (septic patients following treatment) was “decreased serum concentrations of IL-1b”. In addition, the “wounded to intact skin ratio for Cmax, epinephrine plasma” value in data set [3] (Sinclair Nanopig, pig, topical or ocular) was determined as 3.90. Also, the “PK parameters in plasma, intact skin versus abraded skin” value in data set [3] was “no significant difference”.

`Cc1nccn1CC1CCc2c(c3ccccc3n2C)C1=O` (centres unmarked) [Ondansetron]: in data set [4] (setting [5]), the “Amount Ondansetron Permeated, 6 hours” value is recorded as 21.2 (±2.5) μg and the “Amount Ondansetron Permeated, 24 hours” value is 542.4 (±74.3) μg. Also, in data set [4] (setting [6]), the “Amount Ondansetron Permeated, 6 hours” value was 5.7 (±3.9) μg and the “Amount Ondansetron Permeated, 24 hours” value was 43.8 (±19.4) μg.

`NC[C@H](O)c1ccc(O)c(O)c1` [norepinephrine]: in the data set on TNFα, IL-10, the IL-10 secretion entry is recorded as “inducing rapid IL-10 secretion” and the TNFα entry is listed as “potently suppresses”.
